Measurements: patent publication US6489334B2, “Method for the crystallization of a tetrahydropyridin derivative and resulting crystalline forms” (Sanofi-Synthelabo, priority 1996, dated 2002)

Assays:
CACO-2 monolayer = format: in vitro ADME
Description: A study concerning the determination of the in vitro absorption of SR 57746 A as a micronized form I/III mixture was carried out using the CACO-2 monolayer model. This test, which is widely used as a predictive intestinal epithelial model for drug absorption (P. Artusson, Crit. Rev. Ther. Drug, 1991, 8: 305-330), made it possible to show significant differences in terms of dissolution and permeability between SR 57746 A as a micronized form I/III mixture and the SR 57746 A obtained according to EP 0 101 381.

[1] = Phase I clinical trials on healthy volunteers; format: in vivo
[2] = preclinical animal pharmacology, toxicology and pharmacokinetic studies; format: in vivo, animals
[3] = tested on: amyotrophic lateral sclerosis; conditions: 2 mg/day; cited from earlier work

Row | SMILES | dissolution and permeability after micronization (CACO-2 monolayer) | rates of dissolution and permeability, compared between the two materials (CACO-2 monolayer) | variability in the pharmacodynamic effects [1] | variability in the plasma concentrations [1] | pharmacokinetic studies on animals ([2]; animals) | activity and behavior in animal pharmacology and toxicology tests ([2]; preclinical trials) | clinical outcome in amyotrophic lateral sclerosis patients [3]
1 | Cl.FC(F)(F)c1cccc(C2=CCN(CCc3ccc4ccccc4c3)CC2)c1 [1-[2-(2-naphthyl)ethyl]-4-(3-trifluoromethylphenyl)-1,2,3,6-tetrahydropyridine hydrochloride] | normalized | significantly different | – | – | – | – | –
2 | Cl.FC(F)(F)c1cccc(C2=CCN(CCc3ccc4ccccc4c3)CC2)c1 [SR 57746 A, 1-[2-(2-naphthyl)ethyl]-4-(3-trifluoromethylphenyl)-1,2,3,6-tetrahydropyridine hydrochloride] | – | – | high variability | high variability | constant and reproducible results | constant activity and behavior | proved promising
